{"source": "paper PMC8246065", "about": "(The EMBO Journal, 2021)", "key": {"[1]": {"test_system": "HEK293T NOD1/2 KO cells transfected with NOD1 or NOD2 mutants", "test": "IL8 ELISA of HEK293T cells transfected with NOD1/NOD2 mutants", "assay_type": "cell-based, human", "method": "To differentiate THP‐1 into macrophage‐like cells, THP‐1 cells were stimulated with 50 ng/ml phorbol 12‐myristate 13‐acetate (Sigma‐Aldrich, P8139) for 24 h and then incubated with fresh medium for another 48 h. […] To induce NOD1 or NOD2 expression, HeLa NOD1 or NOD2 cells were treated with 0.5 µg/ml or 0.25 µg/ml doxycycline for at least 16 h, respectively. All cells have been checked for mycoplasma contamination regularly. Bone marrow‐derived macrophages (BMDMs) were obtained from tibial and femural bones and generated with DMEM containing 20% L929 cell supernatant, 10% FBS, 5% heat‐inactivated horse serum, 1 mM sodium pyruvate, and 2 mM L‐glutamine. For BMDM stimulation experiments, BMDMs were treated with IFN‐γ (20 ng/ml) overnight before stimulation.\nThe mutagenesis was performed with Q5® site‐directed mutagenesis kit (E0554, NEB) according to the manufacturer's instructions. The primers used in this study were as follows: NOD1 E157A F: 5′‐[…]gcg[…]‐3′, NOD1 E157A R: 5′‐[…]‐3′, NOD1 D161A F: 5′‐[…]gcg[…]‐3′, NOD1 D161A R: 5′‐[…]‐3′, NOD1 D203A F: 5′‐[…]gcg[…]‐3′, D203A R: 5′‐[…]‐3′, L218A F: 5′‐[…]gcg[…]‐3′, L218A R: 5′‐[…]‐3′, R237A F: 5′‐[…]gcg[…]‐3′, R237A R: 5′‐[…]‐3′, H257A F: 5′‐[…]gcg[…]‐3′, H257A R: 5′‐[…]‐3′, E267A F: 5′‐[…]gcg[…]‐3′, E267A R: 5′‐[…]‐3′, H290A F: 5′‐[…]gcg[…]‐3′, H290A R: 5′‐[…]‐3′, E306A F: 5′‐[…]gcg[…]‐3′, E306A R: 5′‐[…]‐3′, K324A F: 5′‐[…]gcg[…]‐3′, K324A R: 5′‐[…]‐3′, K328A F: 5′‐[…]gcg[…]‐3′, K328A R: 5′‐[…]‐3′, R340A F: 5′‐[…]gcg[…]‐3′, R340A R: 5′‐[…]‐3′, R344A F: 5′‐[…]gcg[…]‐3′, R344A R: 5′‐[…]‐3′, R350A F: 5′‐[…]gcg[…]‐3′, R350A R: 5′‐[…]‐3′, D372A F: 5′‐[…]gcg[…]‐3′, D372A R: 5′‐[…]‐3′, R373A F: 5′‐[…]gcg[…]‐3′, R373A R: 5′‐[…]‐3′, R399A F: 5′‐[…]gcg[…]‐3′, R399A R: 5′‐[…]‐3′, D423A F: 5′‐[…]gcg[…]‐3′, D423A R: 5′‐[…]‐3′, R435A F: 5′‐5′‐[…]gcg[…]‐3′, R435A R: 5′‐[…]‐3′, Q484A F: 5′‐[…]gcg[…]‐3′, Q484A R: 5′‐[…]‐3′, L495A F: 5′‐[…]gcg[…]‐3′, L495A R: 5′‐[…]‐3′, E514A F: 5′‐[…]gcg[…]‐3′, E514A R: 5′‐[…]‐3′, H517A F: 5′‐[…]gcg[…]‐3′, H517A R: 5′‐[…]‐3′, L540A F: 5′‐[…]gcg[…]‐3′, L540A R: 5′‐[…]‐3′, F544A F: 5′‐[…]gcg[…]‐3′, and F544A R: 5′‐[…]‐3′."}, "HeLa NOD1 or NOD2 cells": {"test_system": "HeLa NOD1 or NOD2 cells", "test": "Western blot analysis in HeLa NOD1 or NOD2 cells", "assay_type": "cell-based, human", "method": "Cells were lysed in RIPA buffer supplemented with protease inhibitor cocktail and PhosSTOP (Roche, 4906837001) on ice for 10 min. After centrifugation at 16,000 × g for 10 min, supernatants were heated with SDS sample buffer at 95°C for 10 min. Proteins were separated on 4–15% SDS gels (Bio‐Rad, 4561086) and transferred onto nitrocellulose membranes. The membranes were incubated with primary antibodies at 4°C overnight and secondary antibodies at RT for 1 h, respectively. All antibodies were diluted in PBS supplemented with 0.1% Tween‐20 (Sigma‐Aldrich, P1379) and 5% BSA. Membranes were developed with ECL detection Kit (Thermo Fisher Scientific, 34094) and exposed with ChemiDoc (Bio‐Rad). The antibody against ACTB/β‐actin was used as loading control."}, "NLRP3": {"biological_target": "T1, NLRP3 (Homo sapiens, UniProt Q96P20)", "T1 construct": "Addgene (plasmid only) 73955", "test": "MST binding to NLRP3-GFP", "settings": "Fig 6C", "description": "Binding of NOD1, NOD2, GFP, or NLRP3‐GFP to different ligands was measured by microscale thermophoresis (MST). 20 nM GFP or GFP‐tagged proteins in MST buffer (PBS pH 7.4, containing 0.5% NP‐40 and 10 mM DTT) was incubated with different concentrations of ligands. Immediately, samples were loaded into standard glass capillaries (NanoTemper) and thermophoresis analysis was performed on a NanoTemper Monolith NT.115 instrument (40% LED, 80% MST power) at 22°C. A laser on‐time of 30 s and a laser off‐time of 5 s were used. The experiment was performed in triplicates, and the MST curves were fitted using NT analysis software to obtain the K d values."}, "[2]": {"test_system": "HEK293T WT and NOD1/2 KO NF‐κB reporter cells", "test": "NF-κB luciferase assay and IL8 qRT-PCR in HEK293T WT and NOD1/2 KO cells", "assay_type": "cell-based, human", "settings": "cytosolic S1P, HEK293T WT vs NOD1/2 KO", "method": "HEK293T WT and NOD1/2 KO NF‐κB reporter cells were seeded in 96‐well plates and stimulated with various stressors for 8 h. Then, cells were lysed in lysis buffer (Thermo Fisher Scientific) and luciferase activities were determined with firefly luciferase glow kit (Thermo Fisher Scientific) according to the manufacturer’s instructions. Luciferase activities were normalized to the amount of protein determined with Coomassie Plus kit (Thermo Fisher Scientific). Fold inductions were calculated against normalized luciferase activities of corresponding controls.\nTotal RNA was isolated with TRIzol reagent, as described by the manufacturer (Invitrogen). RNA (1 μg) was used to generate cDNA via the iScript cDNA Synthesis Kit (Bio‐Rad), and qRT–PCR was performed using Power SYBR Green Master Mix (Applied Biosystems) in a StepOne Plus thermocycler (Applied Biosystems). The average threshold cycle (Ct) of quadruplicate reactions was employed for all subsequent calculations using the ΔΔCt method. Gene expression was normalized to glyceraldehyde‐3‐phosphate dehydrogenase (GAPDH), and fold changes were calculated against corresponding controls. qRT–PCR data were representative of at least three independent experiments, with at least 2 technical replicates per experiment. […]"}}, "data": [{"smiles": "CCCCCCCCCCCCC/C=C/[C@@H](O)[C@@H](N)COP(=O)(O)O", "note": "[S1P, sphingosine‐1‐phosphate]", "values": [{"measurement": "IL8 production in cells expressing LRR-deficient NOD1/2 (NOD1/2∆LRR)", "setting": "[1]; 20 µM with digitonin, 20 h", "result": "elevated"}, {"measurement": "IL8 production in cells expressing NOD1/2 WT", "setting": "[1]; 20 µM with digitonin, 20 h", "result": "induced"}, {"measurement": "IL8 production / activation in HEK293T cells expressing NOD2 1007fs", "setting": "[1]; 20 µM, 48 h, digitonin", "result": "increased"}, {"measurement": "Activation (IL8) of NOD1 K328A or H517A", "setting": "[1]; Fig EV5H", "result": "not"}, {"measurement": "NOD1 or NOD2 degradation", "setting": "HeLa NOD1 or NOD2 cells; 20 µM with digitonin, Fig EV4G", "result": "did not induce NOD1 or NOD2 degradation"}, {"measurement": "MAPK activation and NF-κB activation", "setting": "HeLa NOD1 or NOD2 cells; cytosolic S1P 20 µM", "result": "triggered MAPK activation and NF‐κB activation"}, {"measurement": "Direct interaction with NLRP3 by MST", "setting": "NLRP3", "result": "not observed"}, {"measurement": "NF-κB activation and IL8 expression", "setting": "[2]", "result": "induced NOD1/2‐dependent NF‐κB activation and IL8 expression"}]}]}
